The source of these data is patent US4966894A, “Polysulfated heparins for treating diseases caused by retroviruses” (BASF Aktiengesellschaft, priority 1987, dated 1990).

For data set [1] the following is noted: background statement; may induce hemorrhages; cited from earlier work.
Data set [2] has as its system reverse transcriptase of Schmidt-Ruppin D (SR-D) virus. The following applies: German Laid-Open Application DOS No. 3,601,136; cited from earlier work.
Data set [3] concerns reverse transcriptase from HIV I. To be noted: literature and own experiments, cf. Table 1; cited from earlier work.
The subject of the next data set is HIV. The following applies: Antiviral Res. 7 [1987], 361; cited from earlier work.
The test system of data set [4] is reverse transcriptase from HIV I. The data set can be described thus: Enzyme test with reverse transcriptase from HIV I. The class given is biochemical. The following applies: 50 μg/ml substance; 120 minutes at 37° C.; poly(rA)/oligo(dT)15 matrix, 3H-dTTP. Here is the method:
I. Enzyme test with reverse transcriptase from HIV I
In the model system described below, the activity of the reverse transcriptase is determined in the presence of an inhibitor, essentially according to Hansen et al. (J. Biol. Chem. 262 [1987], 12393).
The enzyme test has a total volume of 50 μl and contains the following components: 50 mM tris-HCl pH 7.8, 80 mM KCl, 8 mM MgCl2 and 1 mM DTT. This system contains the synthetic polymer poly(rA)/oligo (dT)15 (Boehringer Mannheim) as a matrix, in a concentration of 1 mg/ml. This matrix consists of a synthetic RNA having a length of 100-200 nucleotides,to which short DNA primers having a length of 15 nucleotides are bonded. The DNA primers serve as starting points for the reverse transcriptase. […]
The DNA bound to the exchanger is dried under an infrared lamp, after which the activity is determined by liquid scintillation measurement. The unspecific background is the radioactivity bound to the DEAE filter in the absence of reverse transcriptase in the method described above. […]
The activity of the reverse transcriptase in the presence of a potential inhibitor is expressed as a percentage of the activity in the absence of an inhibitor; or the inhibitory action of a substance (%) is defined as 100% minus the activity in percent.

Take heparin [Commercial heparin]: in data set [1], the anticoagulant properties result is “has anticoagulant properties”. Besides, in data set [2], the “inhibition of reverse transcriptase of SR-D virus” value is “inhibits reverse transcriptase”. For the same substance, the “inhibitory action on reverse transcriptase of HIV I (in words)” value in data set [3] was “could not, however, be confirmed”. Moreover, in the data set with HIV, the “inhibition of HIV replication in vitro” value is listed as “selective inhibitor of HIV replication in vitro”.
Take heparin [Unfractionated heparin]: the Inhibition % in data set [4] is listed as 0%.
